What was measured:
Assay type in all cases: cell-based
F. nucleatum [1] = assay: Minimum Inhibitive Concentration test (MIC) of TCM extracts on oral bacteria; conditions: ethanol TCM extract; Schaedler broth, two-fold dilutions, 24 hrs at 37° C.
Method: (§1) To evaluate the germ-kill efficacy, the dried crude TCM bark, stem, leaf or root was ground to powder. 10-50 grams of TCM powder was mixed with 100 ml of ethanol. The mixture was super-sonicated for 10-15 minutes to extract the TCM actives. The mixture was further transferred into a Mixxor solid-liquid phase extractor for extracting about 50 strokes. The solution was filtered by a 0.45 um Millipore filter. For determination of the TCM extract concentration, slight amount of TCM extract sample was accurately weighed on a pre-weighed aluminum weighing dish. It was dried in a 45° C. oven for 2 hours to evaporate ethanol. The sample dish was weighed again, and the concentration of TCM extract was determined as: conc.=(Dry weight−dish weight)/(wet weight−dish weight)×100%.
(§2) The germ-kill efficacy was determined by a Minimum Inhibitive Concentration test (MIC) and a Minimum Bactericidal Concentration (MBC) test. […] The solution was then serially diluted two-fold so that each subsequent dilution contained 50% of the compound concentration of the previous dilution while maintaining a constant level of nutrients for each dilution. These dilutions were inoculated with representative oral microorganisms, and incubated for 24 hrs at 37° C. For each TCM compound, the lowest dilution that was not turbid was registered as the MIC. The MBC was determined by transferring […] of liquid from no-turbid tubes to fresh growth media and incubated for 48 hrs. […] Table A & B list the MIC and MBC data on P. gingivalis, F. nucleatum and S. nutans.

P. gingivalis [2] = assay: as above; conditions: ethanol TCM extract; Schaedler broth, two-fold dilutions, 24 hrs at 37° C.
Method: as §1, §2

S. mutans [3] = assay: as above; conditions: ethanol TCM extract; Schaedler broth, two-fold dilutions, 24 hrs at 37° C.
Method: as §1, §2

F. nucleatum [4] = assay: Minimum Bactericidal Concentration (MBC) test of TCM extracts on oral bacteria; conditions: transfer from non-turbid tubes to fresh growth media, 48 hrs
Method: as §1, §2

P. gingivalis [5] = assay: as above; conditions: transfer from non-turbid tubes to fresh growth media, 48 hrs
Method: as §1, §2

S. mutans [6] = assay: as above; conditions: transfer from non-turbid tubes to fresh growth media, 48 hrs
Method: as §1, §2

N=C(NCCCCCCNC(=N)NC(=N)Nc1ccc(Cl)cc1)NC(=N)Nc1ccc(Cl)cc1.O=C(O)[C@H](O)[C@@H](O)[C@H](O)[C@H](O)CO.O=C(O)[C@H](O)[C@@H](O)[C@H](O)[C@H](O)CO [Chlorohexdine Gluconate]
MIC F. nucleatum (F. nucleatum [1]): 5 ng/mL | MIC P. gingivalis (P. gingivalis [2]): 2.5 ng/mL | MIC S. mutans (S. mutans [3]): 5 ng/mL | MBC F. nucleatum (F. nucleatum [4]): 10 ng/mL | MBC P. gingivalis (P. gingivalis [5]): 5 ng/mL | MBC S. mutans (S. mutans [6]): 10 ng/mL
